Test results taken from patent US11077039B2, “Topical skin lightening additive and composition with amino acids and nicotinamide compounds” (Conopco, Inc., priority 2016, dated 2021).
Like-named read-outs stand apart in the source and are kept apart here.

Experiments:
[1] = test system: Human primary melanocytes; assay: Melanin content assay; assay type: cell-based; details: Melanocyte, 72 h
Procedure: Human primary melanocytes (Cascade Biologics, now ThermoFisher Scientific) were grown in melanocytes growth medium (MGM) with human melanocyte growth supplement (both media components from ThermoFisher Scientific). Melanocytes were seeded at 5×10^4 cells/well in 24 well-plates and incubated in a humidified incubator at 37° C. with 5% CO2 atmosphere. After 24 hours of incubation, cell cultures were treated with the GAP amino acids or additional test reagents above-described, alone or in combination, as described in examples below. The vehicle control consisted of cells treated with the vehicle (0.002 mM NaOH) alone. After treatment, cells were again incubated for 72 hours in a humidified incubator at 37° C. with 5% CO2 atmosphere. At the end of the 72 hour incubation, the culture medium was replaced with 120 uL/well of melanin content assay reagent (10% DMSO in 1M sodium hydroxide) and incubated for 1 hour at 60° C. in a shaker incubator. The supernatant was then transferred to a 384 well plate. The absorbance was measured by spectrophotometric analysis at 405 nm with a micro plate reader (GEnios Pro, Tecan).
The spectrophotometric optical density at 405 nm for untreated cells (no active) was considered as 100% melanin content. Relative melanin content for treated samples was calculated with normalization based on the untreated (media/vehide) control.

tyrosinase = target: T1, tyrosinase (Homo sapiens, UniProt P14679); assay: Tyrosinase activity assay (in situ, melanocyte lysate); assay type: cell-based; details: Table 1B, 72 h
T1 construct: host or cells: human primary melanocytes
T1 sequence (P14679 19-529): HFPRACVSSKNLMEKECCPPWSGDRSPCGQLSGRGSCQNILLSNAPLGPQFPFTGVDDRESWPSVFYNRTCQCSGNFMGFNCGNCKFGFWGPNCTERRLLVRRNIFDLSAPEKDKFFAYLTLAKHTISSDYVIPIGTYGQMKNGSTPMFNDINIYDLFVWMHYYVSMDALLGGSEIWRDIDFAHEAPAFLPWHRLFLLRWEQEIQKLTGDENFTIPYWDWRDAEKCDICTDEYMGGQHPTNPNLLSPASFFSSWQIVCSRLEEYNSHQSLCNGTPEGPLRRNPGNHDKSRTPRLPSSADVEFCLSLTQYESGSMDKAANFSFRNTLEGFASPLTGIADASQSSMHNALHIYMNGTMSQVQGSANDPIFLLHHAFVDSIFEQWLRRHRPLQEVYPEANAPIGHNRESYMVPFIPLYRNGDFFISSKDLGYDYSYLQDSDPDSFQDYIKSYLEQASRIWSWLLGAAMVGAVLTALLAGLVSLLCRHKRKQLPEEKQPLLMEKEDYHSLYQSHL
Procedure: Human primary melanocytes (Cascade Biologics, now ThermoFisher Scientific) were grown in melanocytes growth medium (MGM) with human melanocyte growth supplement (both media components from ThermoFisher Scientific). Melanocytes were seeded at 1×10^4 cells/well in a 96 wells plate and cultures left undisturbed for 24 hours in a 5% CO2 humidifed incubator at 37° C. At 24 hrs post-seeding, cells were treated with GAP amino acids or additional test reagents above-described, alone or in combination, as described in examples below and left undisturbed for another 72 hours. Subsequently, cell viability was assessed and the cells were then lysed and progressed for determination of in situ tyrosinase activity. Cultures were rinsed twice with 1× phosphate-buffered saline and lysed with 40 uL of 0.5% TritonX 100 for 1 hr on an ice bed. In situ tyrosinase activity was visualized by addition of 60 μl of 50 mM potassium phosphate buffer (pH 6.8) containing 2 mM DOPA (3,4 dihydroxy phenylalanine) and 4 mM MBTH reagent (3-Methyl-2-Benzothiazolinone hydrazone hydrochloride) for 1 hour at 37° C. The reaction was stopped by the addition of 100 uL of ice-cold 10% tricholoracetic acid and then centrifuged at approximately 300 g for 10 minutes at 4° C. The soluble supernatant was separated from the pellet and the optical density read in a TECAN plate-reader (540 nm filter). The spectrophotometric optical density at 540 nm for untreated cells (media/vehicle) is considered as 100% tyrosinase activity. Tyrosinase activity is expressed after correction for cell numbers (activity/viability) and represented as % control.

NC(=O)c1ccc[n+]([C@@H]2O[C@H](CO)[C@@H](O)[C@H]2O)c1 [Nicotinamide Riboside, nicotinamide riboside]
inhibition at 1 µM ([1]; Table 1E, Nicotinamide Riboside 1 uM, alone or with GAP, read-out: Melanin synthesis inhibition, Mean of % Inhibition): 4%
inhibition at 2.5 µM ([1]; Table 1E, Nicotinamide Riboside 2.5 uM, alone or with GAP, read-out: Melanin synthesis inhibition, Mean of % Inhibition): 9%

NC(=O)c1ccncc1 [Isonicotinamide, isonicotinamide]
inhibition at 5000 µM ([1]; Table 1D, Isonicotinamide 5 mM, alone or with GAP, read-out: Melanin synthesis inhibition, Mean of % Inhibition): 4%
inhibition at 10000 µM ([1]; Table 1D, Isonicotinamide 10 mM, alone or with GAP, read-out: Melanin synthesis inhibition, Mean of % Inhibition): 20%

CCCCCCc1ccc(O)cc1O [HR, 4-hexylresorcinol]
inhibition at 10 µM (tyrosinase; HR 10 uM): 67%
inhibition at 10 µM ([1]; Table 1A, HR 10 uM, read-out: Melanin synthesis inhibition, Mean of % Inhibition): 35%
inhibition at 10 µM ([1]; Table 1C, HR 10 μM, read-out: Melanin synthesis inhibition, Mean of % Inhibition): 26%
inhibition at 10 µM ([1]; Table 1D, HR 10 uM, read-out: Melanin synthesis inhibition, Mean of % Inhibition): 32%
inhibition at 10 µM ([1]; Table 1E, HR 10 uM, read-out: Melanin synthesis inhibition, Mean of % Inhibition): 28%
inhibition at 10 µM ([1]; Table 2, HR 10 uM, read-out: Melanin synthesis inhibition, Mean of % Inhibition): 36%
inhibition at 10 µM ([1]; Table 2B, HR 10 uM, read-out: Melanin Synthesis inhibition, Mean of % Inhibition): 32%

CNC(=O)c1cccnc1 [N-methyl Nicotinamide, n-methyl-nicotinamide]
inhibition at 5000 µM ([1]; Table 1C, N-methyl Nicotinamide 5 mM, alone or with GAP, read-out: Melanin synthesis inhibition, Mean of % Inhibition): 0%
inhibition at 10000 µM ([1]; Table 1C, N-methyl Nicotinamide 10 mM, alone or with GAP, read-out: Melanin synthesis inhibition, Mean of % Inhibition): 7%

NC(=O)c1cccnc1 [Nicotinamide, nicotinamide]
inhibition at 5000 µM (tyrosinase; Nicotinamide 5 mM, alone or with GAP): 16%
inhibition at 10000 µM (tyrosinase; Nicotinamide 10 mM, alone or with GAP): 24%
inhibition at 5000 µM ([1]; Table 1A, Nicotinamide 5 mM, alone or with GAP, read-out: Melanin synthesis inhibition, Mean of % Inhibition): 9%
inhibition at 10000 µM ([1]; Table 1A, Nicotinamide 10 mM, alone or with GAP, read-out: Melanin synthesis inhibition, Mean of % Inhibition): 10%

O=C(O)c1cccnc1 [Niacin, niacin]
inhibition at 5000 µM ([1]; Table 2B, Niacin 5 mM, alone or with GAP, read-out: Melanin Synthesis inhibition, Mean of % Inhibition): -7%
inhibition at 10000 µM ([1]; Table 2B, Niacin 10 mM, alone or with GAP, read-out: Melanin Synthesis inhibition, Mean of % Inhibition): 14%

NC(=O)c1ccccn1 [Picolinamide, picolinamide]
inhibition at 5000 µM ([1]; Table 2, Picolinamide 5 mM, alone or with GAP, read-out: Melanin synthesis inhibition, Mean of % Inhibition): 6%
inhibition at 10000 µM ([1]; Table 2, Picolinamide 10 mM, alone or with GAP, read-out: Melanin synthesis inhibition, Mean of % Inhibition): 32%
